What was measured:
Format in all cases: in vivo
[1] = tested on: redroot pigweed (Amaranthus retroflexus, AMARE); experiment: Pre-emerge test, greenhouse herbicide activity screening; conditions: pre-emerge, rated 14 days after application, 0 = no damage, 100 = complete death
How it was run: (§1)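 Rating: 0–100 visual injury, 14 DAA. Application: acetone, 187 l/ha, 15–1000 g ai/ha, flat-fan track sprayer with nozzle 40–45 cm above soil or canopy. Post-emerge runs used 0.25% v/v surfactant on 2–3 leaf plants.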

[2] = tested on: barnyardgrass (Echinochloa crus-galli, ECHCG); experiment: as above; conditions: pre-emerge, rated 14 days after application, 0 = no damage, 100 = complete death
How it was run: (§2)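 Compounds in acetone were track-sprayed at 15–1000 g ai/ha: pre-emergence onto soil sown the previous day, then top-watered to incorporate and later bottom-watered; post-emergence onto 2–3 leaf plants with 0.25% v/v surfactant, bottom-watered only. Ratings on a 0–100 phytotoxicity scale were taken at day 14.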

[3] = tested on: green foxtail (Setaria viridis, SETVI); experiment: as above; conditions: pre-emerge, rated 14 days after application, 0 = no damage, 100 = complete death
How it was run: as §2

[4] = tested on: ivyleaf morningglory (Ipomoea hederacea, IPOHE); experiment: as above; conditions: pre-emerge, rated 14 days after application, 0 = no damage, 100 = complete death
How it was run: as §2

[5] = tested on: johnsongrass (Sorghum halepense, SORHA); experiment: as above; conditions: pre-emerge, rated 14 days after application, 0 = no damage, 100 = complete death
How it was run: as §2

[6] = tested on: lambsquarters (Chenopodium album, CHEAL); experiment: as above; conditions: pre-emerge, rated 14 days after application, 0 = no damage, 100 = complete death
How it was run: as §2

[7] = tested on: large crabgrass (Digitaria sanguinalis, DIGSA); experiment: as above; conditions: pre-emerge, rated 14 days after application, 0 = no damage, 100 = complete death
How it was run: as §2

[8] = tested on: sicklepod (Cassia obtusifolia, CASOB); experiment: as above; conditions: pre-emerge, rated 14 days after application, 0 = no damage, 100 = complete death
How it was run: as §2

[9] = tested on: velvetleaf (Abutilon theophrasti, ABUTH); experiment: as above; conditions: pre-emerge, rated 14 days after application, 0 = no damage, 100 = complete death
How it was run: as §2

[10] = tested on: field corn (Zea mays L., var. Dekalb 535, CORN); experiment: Pre-emerge test, crop safety; conditions: pre-emerge, rated 14 days after application, 0 = no damage, 100 = complete death
How it was run: (§3)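 Sandy loam pots; pre-emerge: sown 1 d pre-spray, surface-watered after, then bottom-watered. Post-emerge: sown 8–21 d before, 2–3 leaf stage, + 0.25% v/v NIS, bottom-watered. Acetone, 187 l/ha track spray, 15–1000 g ai/ha. 0–100 injury score, day 14.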

[11] = tested on: upland rice (Oryza sp., var. Tebonnet, RICE); experiment: Pre-emerge test, crop safety; conditions: pre-emerge, rated 14 days after application, 0 = no damage, 100 = complete death
How it was run: as §3

[12] = tested on: barnyardgrass (Echinochloa crus-galli, ECHCG); experiment: Post-emerge test, greenhouse herbicide activity screening; conditions: phytotoxicity rating 0-100 (0 no damage, 100 complete death), 14 days after application
How it was run: (§4)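 Visual ratings on a 0-100 scale (0 no damage, 100 all plants dead) were taken at 14 days after treatment. Rates of 15-1000 g ai/ha in acetone, 187 l/ha, were sprayed onto soil one day after planting (pre-emerge) or onto 2-3 leaf plants with 0.25% v/v surfactant (post-emerge).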

[13] = tested on: green foxtail (Setaria viridis, SETVI); experiment: as above; conditions: phytotoxicity rating 0-100 (0 no damage, 100 complete death), 14 days after application
How it was run: as §4

[14] = tested on: ivyleaf morningglory (Ipomoea hederacea, IPOHE); experiment: as above; conditions: phytotoxicity rating 0-100 (0 no damage, 100 complete death), 14 days after application
How it was run: as §4

[15] = tested on: johnsongrass (Sorghum halepense, SORHA); experiment: as above; conditions: phytotoxicity rating 0-100 (0 no damage, 100 complete death), 14 days after application
How it was run: as §4

[16] = tested on: lambsquarters (Chenopodium album, CHEAL); experiment: as above; conditions: phytotoxicity rating 0-100 (0 no damage, 100 complete death), 14 days after application
How it was run: as §4

[17] = tested on: large crabgrass (Digitaria sanguinalis, DIGSA); experiment: as above; conditions: phytotoxicity rating 0-100 (0 no damage, 100 complete death), 14 days after application
How it was run: as §4

[18] = tested on: redroot pigweed (Amaranthus retroflexus, AMARE); experiment: as above; conditions: phytotoxicity rating 0-100 (0 no damage, 100 complete death), 14 days after application
How it was run: as §4

[19] = tested on: sicklepod (Cassia obtusifolia, CASOB); experiment: as above; conditions: phytotoxicity rating 0-100 (0 no damage, 100 complete death), 14 days after application
How it was run: as §4

[20] = tested on: velvetleaf (Abutilon theophrasti, ABUTH); experiment: as above; conditions: phytotoxicity rating 0-100 (0 no damage, 100 complete death), 14 days after application
How it was run: as §4

[21] = tested on: field corn (Zea mays L., var. Dekalb 535, CORN); experiment: Post-emerge test, crop safety; conditions: phytotoxicity rating 0-100 (0 no damage, 100 complete death), 14 days after application
How it was run: as §1

[22] = tested on: upland rice (Oryza sp., var. Tebonnet, RICE); experiment: Post-emerge test, crop safety; conditions: phytotoxicity rating 0-100 (0 no damage, 100 complete death), 14 days after application
How it was run: as §1

C=CC(=O)N(C(=O)C=C)c1c(OC)c(Cl)cc(F)c1-n1c(=O)cc(C(F)(F)F)n(C)c1=O [2-4]
Pre-emerge Herbicidal Activity AMARE (phytotoxicity rating, scale 0-100) ([1]; 63 g ai/ha): 80 | Pre-emerge Herbicidal Activity AMARE (phytotoxicity rating, scale 0-100) ([1]; 250 g ai/ha): 95 | Pre-emerge Herbicidal Activity ECHCG (phytotoxicity rating, scale 0-100) ([2]; 63 g ai/ha): 0 | Pre-emerge Herbicidal Activity ECHCG (phytotoxicity rating, scale 0-100) ([2]; 250 g ai/ha): 0 | Pre-emerge Herbicidal Activity SETVI (phytotoxicity rating, scale 0-100) ([3]; 63 g ai/ha): 0 | Pre-emerge Herbicidal Activity SETVI (phytotoxicity rating, scale 0-100) ([3]; 250 g ai/ha): 80 | Pre-emerge Herbicidal Activity IPOHE (phytotoxicity rating, scale 0-100) ([4]; 63 g ai/ha): 20 | Pre-emerge Herbicidal Activity IPOHE (phytotoxicity rating, scale 0-100) ([4]; 250 g ai/ha): 70 | Pre-emerge Herbicidal Activity SORHA (phytotoxicity rating, scale 0-100) ([5]; 63 g ai/ha): 0 | Pre-emerge Herbicidal Activity SORHA (phytotoxicity rating, scale 0-100) ([5]; 250 g ai/ha): 0 | Pre-emerge Herbicidal Activity CHEAL (phytotoxicity rating, scale 0-100) ([6]; 63 g ai/ha): 50 | Pre-emerge Herbicidal Activity CHEAL (phytotoxicity rating, scale 0-100) ([6]; 250 g ai/ha): 100 | Pre-emerge Herbicidal Activity DIGSA (phytotoxicity rating, scale 0-100) ([7]; 63 g ai/ha): 0 | Pre-emerge Herbicidal Activity DIGSA (phytotoxicity rating, scale 0-100) ([7]; 250 g ai/ha): 50 | Pre-emerge Herbicidal Activity CASOB (phytotoxicity rating, scale 0-100) ([8]; 63 g ai/ha): 0 | Pre-emerge Herbicidal Activity CASOB (phytotoxicity rating, scale 0-100) ([8]; 250 g ai/ha): 0 | Pre-emerge Herbicidal Activity ABUTH (phytotoxicity rating, scale 0-100) ([9]; 63 g ai/ha): 30 | Pre-emerge Herbicidal Activity ABUTH (phytotoxicity rating, scale 0-100) ([9]; 250 g ai/ha): 100 | Pre-emerge crop damage CORN (phytotoxicity rating, scale 0-100) ([10]; 63 g ai/ha): 0 | Pre-emerge crop damage CORN (phytotoxicity rating, scale 0-100) ([10]; 250 g ai/ha): 20 | Pre-emerge crop damage RICE (phytotoxicity rating, scale 0-100) ([11]; 63 g ai/ha): 0 | Pre-emerge crop damage RICE (phytotoxicity rating, scale 0-100) ([11]; 250 g ai/ha): 10 | Post-emerge Herbicidal Activity ECHCG ([12]; 63 g ai/ha): 0 | Post-emerge Herbicidal Activity ECHCG ([12]; 250 g ai/ha): 0 | Post-emerge Herbicidal Activity SETVI ([13]; 63 g ai/ha): 0 | Post-emerge Herbicidal Activity SETVI ([13]; 250 g ai/ha): 0 | Post-emerge Herbicidal Activity IPOHE ([14]; 63 g ai/ha): 0 | Post-emerge Herbicidal Activity IPOHE ([14]; 250 g ai/ha): 20 | Post-emerge Herbicidal Activity SORHA ([15]; 63 g ai/ha): 10 | Post-emerge Herbicidal Activity SORHA ([15]; 250 g ai/ha): 10 | Post-emerge Herbicidal Activity CHEAL ([16]; 63 g ai/ha): 50 | Post-emerge Herbicidal Activity CHEAL ([16]; 250 g ai/ha): 50 | Post-emerge Herbicidal Activity DIGSA ([17]; 63 g ai/ha): 0 | Post-emerge Herbicidal Activity DIGSA ([17]; 250 g ai/ha): 0 | Post-emerge Herbicidal Activity AMARE ([18]; 63 g ai/ha): 0 | Post-emerge Herbicidal Activity AMARE ([18]; 250 g ai/ha): 70 | Post-emerge Herbicidal Activity CASOB ([19]; 63 g ai/ha): 0 | Post-emerge Herbicidal Activity CASOB ([19]; 250 g ai/ha): 0 | Post-emerge Herbicidal Activity ABUTH ([20]; 63 g ai/ha): 0 | Post-emerge Herbicidal Activity ABUTH ([20]; 250 g ai/ha): 50 | Post-emerge Herbicidal Activity CORN (crop damage) ([21]; 63 g ai/ha): 0 | Post-emerge Herbicidal Activity CORN (crop damage) ([21]; 250 g ai/ha): 0 | Post-emerge Herbicidal Activity RICE (crop damage) ([22]; 63 g ai/ha): 0 | Post-emerge Herbicidal Activity RICE (crop damage) ([22]; 250 g ai/ha): 0

C=C(C)C(=O)Nc1c(OC)c(Cl)cc(F)c1-n1c(=O)cc(C(F)(F)F)n(C)c1=O [2-5]
Pre-emerge Herbicidal Activity AMARE (phytotoxicity rating, scale 0-100) ([1]; 63 g ai/ha): 90 | Pre-emerge Herbicidal Activity AMARE (phytotoxicity rating, scale 0-100) ([1]; 250 g ai/ha): 100 | Pre-emerge Herbicidal Activity ECHCG (phytotoxicity rating, scale 0-100) ([2]; 63 g ai/ha): 10 | Pre-emerge Herbicidal Activity ECHCG (phytotoxicity rating, scale 0-100) ([2]; 250 g ai/ha): 90 | Pre-emerge Herbicidal Activity SETVI (phytotoxicity rating, scale 0-100) ([3]; 63 g ai/ha): 100 | Pre-emerge Herbicidal Activity SETVI (phytotoxicity rating, scale 0-100) ([3]; 250 g ai/ha): 100 | Pre-emerge Herbicidal Activity IPOHE (phytotoxicity rating, scale 0-100) ([4]; 63 g ai/ha): 90 | Pre-emerge Herbicidal Activity IPOHE (phytotoxicity rating, scale 0-100) ([4]; 250 g ai/ha): 100 | Pre-emerge Herbicidal Activity SORHA (phytotoxicity rating, scale 0-100) ([5]; 63 g ai/ha): 60 | Pre-emerge Herbicidal Activity SORHA (phytotoxicity rating, scale 0-100) ([5]; 250 g ai/ha): 90 | Pre-emerge Herbicidal Activity CHEAL (phytotoxicity rating, scale 0-100) ([6]; 63 g ai/ha): 100 | Pre-emerge Herbicidal Activity CHEAL (phytotoxicity rating, scale 0-100) ([6]; 250 g ai/ha): 100 | Pre-emerge Herbicidal Activity DIGSA (phytotoxicity rating, scale 0-100) ([7]; 63 g ai/ha): 50 | Pre-emerge Herbicidal Activity DIGSA (phytotoxicity rating, scale 0-100) ([7]; 250 g ai/ha): 95 | Pre-emerge Herbicidal Activity CASOB (phytotoxicity rating, scale 0-100) ([8]; 63 g ai/ha): 40 | Pre-emerge Herbicidal Activity CASOB (phytotoxicity rating, scale 0-100) ([8]; 250 g ai/ha): 100 | Pre-emerge Herbicidal Activity ABUTH (phytotoxicity rating, scale 0-100) ([9]; 63 g ai/ha): 100 | Pre-emerge Herbicidal Activity ABUTH (phytotoxicity rating, scale 0-100) ([9]; 250 g ai/ha): 100 | Pre-emerge crop damage CORN (phytotoxicity rating, scale 0-100) ([10]; 63 g ai/ha): 10 | Pre-emerge crop damage RICE (phytotoxicity rating, scale 0-100) ([11]; 63 g ai/ha): 70 | Pre-emerge crop damage RICE (phytotoxicity rating, scale 0-100) ([11]; 250 g ai/ha): 80 | Post-emerge Herbicidal Activity ECHCG ([12]; 63 g ai/ha): 0 | Post-emerge Herbicidal Activity ECHCG ([12]; 250 g ai/ha): 0 | Post-emerge Herbicidal Activity SETVI ([13]; 63 g ai/ha): 0 | Post-emerge Herbicidal Activity SETVI ([13]; 250 g ai/ha): 0 | Post-emerge Herbicidal Activity IPOHE ([14]; 63 g ai/ha): 50 | Post-emerge Herbicidal Activity IPOHE ([14]; 250 g ai/ha): 90 | Post-emerge Herbicidal Activity SORHA ([15]; 63 g ai/ha): 0 | Post-emerge Herbicidal Activity SORHA ([15]; 250 g ai/ha): 30 | Post-emerge Herbicidal Activity CHEAL ([16]; 63 g ai/ha): 40 | Post-emerge Herbicidal Activity CHEAL ([16]; 250 g ai/ha): 70 | Post-emerge Herbicidal Activity DIGSA ([17]; 63 g ai/ha): 0 | Post-emerge Herbicidal Activity DIGSA ([17]; 250 g ai/ha): 0 | Post-emerge Herbicidal Activity AMARE ([18]; 63 g ai/ha): 20 | Post-emerge Herbicidal Activity AMARE ([18]; 250 g ai/ha): 40 | Post-emerge Herbicidal Activity CASOB ([19]; 63 g ai/ha): 10 | Post-emerge Herbicidal Activity CASOB ([19]; 250 g ai/ha): 50 | Post-emerge Herbicidal Activity ABUTH ([20]; 63 g ai/ha): 90 | Post-emerge Herbicidal Activity ABUTH ([20]; 250 g ai/ha): 100 | Post-emerge Herbicidal Activity CORN (crop damage) ([21]; 63 g ai/ha): 5 | Post-emerge Herbicidal Activity CORN (crop damage) ([21]; 250 g ai/ha): 10 | Post-emerge Herbicidal Activity RICE (crop damage) ([22]; 63 g ai/ha): 30 | Post-emerge Herbicidal Activity RICE (crop damage) ([22]; 250 g ai/ha): 40
